Experiments:
[1] = Average results of oral pharmacokinetic studies of hArg-Amp vs Lys-Amp (Table 3); details: relative to Lys-Amp
[2] = Pharmacokinetics of d-amphetamine after parenteral (intranasal, intravenous) administration of hArg-Amp (Example 1); details: parental routes (intranasal, intravenous)
[3] = Intranasal pharmacokinetic study of d-amphetamine, hArg-Amp and Lys-Amp (Example 15); details: for % Tmax: relative to d-amp
[4] = Intravenous pharmacokinetic study of d-amphetamine, hArg-Amp and Lys-Amp (Example 16); details: for % Tmax: relative to d-amp
[5] = Oral pharmacokinetic study of Cit-Amp vs Lys-Amp (Example 13); details: for % Tmax: relative to Lys-Amp
[6] = Oral pharmacokinetic study of hArg-Amp vs Lys-Amp, plasma d-amphetamine by ELISA (Example 12); details: relative to Lys-Amp
[7] = Oral pharmacokinetic study of Lys-Amp, Sar-Amp, hCit-Amp and hArg(NO2)-Amp (Example 14); details: for Cmax: plasma d-amphetamine, n=5

In the case of C[C@@H](Cc1ccccc1)NC(=O)[C@@H](N)CCCCN=C(N)N.Cl.Cl [hArg-Amp, l-homoarginine-d-amphetamine dihydrochloride], the “% Tmax” value [1] is reported as 200-400%, the release of amphetamine [2] is reported as less than 25% and the Tmax ([3]; intranasal, plasma d-amphetamine) is reported as 30 min. For the same compound, the “% Tmax” value ([3]; intranasal) was 600%, the Tmax ([4]; intravenous, plasma d-amphetamine) was 5 m and the “% Tmax” value ([4]; intravenous) was 100%.
In the case of C[C@@H](Cc1ccccc1)NC(=O)[C@@H](N)CCCNC(N)=O.Cl [Cit-Amp, 1-citrulline-d-amphetamine hydrochloride], the “% Tmax” value [5] is reported as 25%.
For l-lysine-d-amphetamine [Lys-Amp], the “% Tmax” value [1] was 100%, the “% Tmax” value ([3]; intranasal) was 3600% and the “% Tmax” value [6] was 100%. For the same compound, the Cmax [7] was 54 ng/mL, the “% Tmax” value ([7]; relative to Lys-Amp) was 100% and the Cmax ([5]; plasma d-amphetamine, n=5) was 59 ng/mL. For the same compound, the “% Tmax” value [5] was 100% and the “% Tmax” value ([4]; intravenous) was 100%.
For “l-homocitrulline-d-amphetamine hydrochloride [hCit-Amp]”, the Cmax [7] was 57 ng/mL.
Work on sarcosine-d-amphetamine [Sar-Amp] yielded a Cmax [7] of 45 ng/mL.
With C[C@H](N)Cc1ccccc1 [d-amp, d-amphetamine] the “% Tmax” value ([3]; intranasal) was 100%, the Tmax ([3]; male, Sprague-Dawley, rat, in vivo, inhaled or intranasal, […]) was 5 min and the “% Tmax” value ([4]; intravenous) was 100%. It also gave a Tmax ([4]; male, Sprague-Dawley, rat, in vivo, iv, […]) of 5 min.
C[C@@H](Cc1ccccc1)NC(=O)[C@@H](N)CCCCNC(N)=N[N+](=O)[O-] [hArg(NO2)-Amp, l-homoarginine(NO2)-d-amphetamine] showed a Cmax [7] of 59 ng/mL.
